The values that follow are results of earlier work, collected in patent publication US20160089380A1, “PROGESTERONE IMPREGNATED VAGINAL RING/PESSARY” (YALE UNIVERSITY, priority 2014, published 2016).

Data set [1] deals with women.
For data set [2], the system named is women. The note with it: two studies.

For the molecule `CC(=O)[C@H]1CC[C@H]2[C@@H]3CCC4=CC(=O)CC[C@]4(C)[C@H]3CC[C@]12C` [progesterone], in data set [1] (10 studies, 1750 women, 95% CI 0.42 to 0.74), the “risk of preterm birth <37 weeks (average RR)” value was 0.55. Moreover, in data set [1] (five studies, 602 women, 95% CI 0.14 to 0.69), the “risk of preterm birth <34 weeks (average RR)” value is listed as 0.31. The “increase in pregnancy prolongation, mean difference (MD)” value in data set [1] (one study, 148 women, 95% CI 2.15 to 6.79) is listed as 4.47 weeks. Moreover, the “risk of preterm birth <34 weeks (RR)” value in data set [2] (438 women, 95% CI 0.45 to 0.90) was 0.64. In addition, in data set [2] (1115 women, 95% CI 0.37 to 0.93), the “risk of preterm birth at <28 weeks' gestation (RR)” value is 0.59.
